From paper PMC6081459, “Pathogen-derived HLA-E bound epitopes reveal broad primary anchor pocket tolerability and conformationally malleable peptide binding” (Nature Communications, 2018) come the findings set out here.

Assay [1] concerns HLA-E-β2m complexes. In kind it is binding, human. The settings on record: for Thermal melt (Tm) of peptide-refolded HLA-E-β2m complex: Protein Thermal Shift dye, 5 μg complex, ramp 25 to 95 °C, quadruplicate, median Derivative Tm.
In assay [2] the test system is Mamu-E restricted CD8^+ T cells. The format is cell-based, rhesus macaques (Macaca mulatta).
For assay [3], the system named is HLA-E-β2m complexes. In kind it is binding, human. The settings on record: 200 M excess peptide, 2 h at room temperature.
Assay [4] deals with Mamu-E-restricted CD8+ T cells. In kind it is cell-based, rhesus macaques.

Like-named read-outs stand apart in the source and are kept apart here.

For the sequence RMYSPTSIL [RL9HIV], the “Thermal melt (Tm) of peptide-refolded HLA-E-β2m complex” value with HLA-E-β2m complexes [1] is “not possible to obtain a reproducible thermal melt pattern”. In assay [2] (PBMC of six RM vaccinated with HIVGag-insert RhCMV68-1 vector, blocking with VL9 (MHC-E) or CLIP + anti-MHC-II), the “Mamu-E restricted CD8+ T cell responses (IFNγ and/or TNFα, ICS)” value is “elicited Mamu-E restricted CD8^+ T cell responses”. The “Displacement of VL9 from pre-refolded HLA-E-β2m-VL9 complexes (BN-PAGE)” value in the assay on HLA-E-β2m complexes [3] was “also displaced VL9 from HLA-E-β2m complexes”. The “Rhesus CD8+ T cell responses to peptide presented by Mamu-E versus HLA-E” value in assay [4] is reported as “of comparable magnitude”.
For the sequence VMAPRTVLL [VL9, reference compound], in the assay on HLA-E-β2m complexes [1], the “Increase in stability (Tm) of the HLA-E-β2m complex versus no peptide refolded forms” value was ≤ 10 °C and the “Thermal melt (Tm) of peptide-refolded HLA-E-β2m complex” value came to 47.5 °C.
For RLPAKAPLL [Mtb44], in the assay on HLA-E-β2m complexes [1], the “Thermal melt (Tm) of peptide-refolded HLA-E-β2m complex” value was determined as 50.2 °C. Further, the “Mamu-E restricted CD8+ T cell responses (IFNγ and/or TNFα, ICS)” value in assay [2] is given as “elicited Mamu-E-restricted CD8^+ T cell responses”. The “Displacement of VL9 from pre-refolded HLA-E-β2m-VL9 complexes (BN-PAGE)” value with HLA-E-β2m complexes [3] is “readily displaced”. Also, the “Rhesus CD8+ T cell responses to peptide presented by Mamu-E versus HLA-E” value in assay [4] is listed as “of comparable magnitude”.
